# Test results reported in ChEMBL document CHEMBL4184099, “Fragment-based discovery of a potent NAMPT inhibitor” (Bioorg Med Chem Lett, 2018).
# Key:
# [1] = molecular target: T1, Nicotinamide phosphoribosyltransferase (Homo sapiens, UniProt P43490); assay: Inhibition of human full length C-terminal flag/His-tagged NAMPT (1 to 491 residues) expressed in HEK293-6E cells by TR-FRET assay
# Target sequence in this assay (P43490 whole entry, the tested form may be a part): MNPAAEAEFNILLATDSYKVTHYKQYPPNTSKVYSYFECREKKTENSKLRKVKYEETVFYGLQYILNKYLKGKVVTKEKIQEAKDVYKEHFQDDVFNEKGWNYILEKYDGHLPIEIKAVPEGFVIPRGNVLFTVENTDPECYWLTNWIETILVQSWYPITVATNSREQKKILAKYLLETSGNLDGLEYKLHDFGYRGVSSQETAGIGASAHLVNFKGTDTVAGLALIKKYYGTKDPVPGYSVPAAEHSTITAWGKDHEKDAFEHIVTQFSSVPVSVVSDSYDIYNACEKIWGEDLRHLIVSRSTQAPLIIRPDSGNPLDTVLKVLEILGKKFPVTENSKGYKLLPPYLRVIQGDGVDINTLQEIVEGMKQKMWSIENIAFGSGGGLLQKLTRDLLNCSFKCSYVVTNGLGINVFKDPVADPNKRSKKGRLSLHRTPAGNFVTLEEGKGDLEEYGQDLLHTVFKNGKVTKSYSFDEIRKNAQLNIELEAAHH
# [2] = molecular target: T1, Nicotinamide phosphoribosyltransferase; assay: Inhibition of NAM binding to human full length C-terminal flag/His-tagged NAMPT (1 to 491 residues) at 400 uM by STD-NMR spectroscopic analysis relative to control
# Target sequence in this assay (P43490 whole entry, looked up, the tested form may be a part): as the sequence (P43490 whole entry, the tested form may be a part) above
SMILES,IC50 [1] [µM],inhibition [2] [%]
O=C(Cc1ccccc1)Nc1ccc2nc[nH]c2c1,90,
O=C(NCc1ccncc1)Nc1ccc(F)c(F)c1,850,80
CCCc1cc(=O)[nH]c(Nc2ccccc2F)n1,360,80
O=C1OCCC/C1=C\Nc1ccccc1,10,
O=C1C2CCC2C(=O)N1CCc1ccccn1 (stereo unspecified),> 1000,80
CC(C)CCNC(=O)c1ccc(NC(=O)Nc2ccc3nc[nH]c3c2)cc1,0.08,
Cc1ccc(Cn2nnc3cc(C(N)=O)ccc32)cc1,8,80
